Three molecules from US20260184689A1, “PIPERIDINE-SUBSTITUTED BENZOIC ACID COMPOUND, AND PHARMACEUTICAL COMPOSITION AND USE THEREOF” (SHANGHAI YISHENG BIOPHARMACEUTICAL COMPANY LIMITED, priority 2022, published 2026) can be followed below.

pIC50: −log10 of the molar value.

The assay deals with PNH-like erythrocytes. Briefly: Alternative pathway inhibition assay of PNH-like erythrocyte. The assay is classed as cell-based. Conditions: 1 h, AET/anti-CD55 sensitized human erythrocytes, acidified normal human serum pH 6.4, 37° C. 60 min. An excerpt:
Principle: PNH, as an indication for complement inhibitors, was typically tested using the Ham test, which states that acidified serum was capable of activating the alternative pathway, leading to hemolysis of PNH erythrocytes, while normal erythrocytes remained unaffected. It was reported in the literature that AET could disrupt the complement regulatory proteins on the surface of normal human erythrocytes, resulting in PNH-like erythrocytes.
Reagents and instrument: PBS buffer, normal human serum (NHS), Alsever's solution, microplate reader, MgCl2, EGTA, EDTA, HCl, normal human erythrocytes, AET; anti-CD-55 antibody (BRIC216; Sigma)
PBS buffer: Potassium dihydrogen phosphate (KH2PO4): 0.24 g/L, disodium hydrogen phosphate (Na2HPO4): 1.44 g/L, sodium chloride (NaCl): 8 g/L, potassium chloride (KCl): 0.2 g/L, pH 7.4
PBSE buffer: PBS, 10 mM EDTA; pH 7.4
PBSMg buffer: PBS, 1 mM Mg++; pH 6.4
10× Mg-EGTA stock solution: 25 mM MgCl2, 80 mM EGTA; pH 6.4
10× EDTA stock solution: 100 mM EDTA; pH 6.4
Method: The inhibition of alternative pathway-mediated erythrocyte lysis was evaluated using an in vitro model of PNH. Normal human erythrocytes were sensitized with 2-aminoethylisothiouronium bromide (AET) to inactivate complement regulatory proteins on the cell surface and induce a PNH-like phenotype.
2 mL of normal human erythrocytes were mixed with 2 mL of Alsever's solution, washed three times with PBS, and centrifuged at 2500×g, with the upper 10% of the erythrocytes being removed each time. The washed 1 mL erythrocytes were sensitized by incubation with 4 mL of 8% w/v AET (pH 8.0) at 37° C. for 10 min, followed by three additional washes with PBS. Subsequently, the concentration of erythrocytes in PBS (erythrocyte stock solution) was adjusted with PBS such that an absorbance of 1.5-2.0 at 412 nm (indicating hemoglobin release) was achieved upon dilution of 10 μL erythrocyte stock solution with 190 μL water.
1.5 mL of the erythrocyte stock solution was mixed with anti-CD55 antibody (BRIC216; Sigma/final concentration of 6.7 μg/mL) and incubated on ice for 30 min. After being washed once with PBS, the treated erythrocytes were resuspended in PBS-Mg to the initial volume of 1.5 mL. The following AP-mediated lysis assay was performed on this erythrocyte preparation with induced PNH phenotype.
The normal human serum was acidified with 0.2 M HCl to pH 6.4, and supplemented with MgCl2 and EGTA to final concentrations of 2.5 and 8 mM, respectively. 80 μL of this serum mixture was mixed with 10 μL of PBS-Mg (negative blank) or 10 μL of samples at various concentrations. Normal human serum was acidified with 0.2 M HCl to pH 6.4, supplemented with EDTA to a final concentration of 10 mM, and 80 μL of this serum mixture was mixed with 10 μL of PBS-Mg (negative blank) as a blank positive control. The sample was incubated with serum on ice for 5 min, and then 10 μL of sensitized erythrocytes were added. The final serum concentration in the reaction mixture was approximately 64% v/v, incubated at 37° C. for 60 min, and the reaction was quenched by adding 50 μL of ice-cold PBS containing 10 mM EDTA. The remaining unlysed cells were centrifuged at 2500×g for 10 min, and 100 μL of the supernatant was transferred to a 96-well plate to measure its absorbance at 412 nm. The amount of hemoglobin released during erythrocyte lysis was thereby quantified. […] represented the relative lysis of PNH-like erythrocytes (expressed in %; set to 0% for the PC sample and 100% for the NC sample). The absorbance was measured using a microplate reader (Molecular Devices SpectraMax 3X). The IC50 value was calculated by applying nonlinear regression with GraphPad Prism 9.0 software from the percentage of hemolysis as a function of the test compound concentration.
As to `CCO[C@H]1CCN(Nc2c(OC)cc(C)c3[nH]ccc23)[C@H](c2ccc(C(=O)O)cc2)C1` [Compound 11 of Example 75, 4-((2S,4S)-4-Ethoxy-1-((5-methoxy-7-methyl-1H-indol-4-yl)amino)piperidin-2-yl)benzoic acid], the pIC50 – broadly, the IC50 on a negative log10 scale, so that one unit is a factor of ten – was 6.52 to 7.00. As to `CCCC1CCN(C(=O)c2c(OC)cc(C)c3[nH]ccc23)C(c2ccc(C(=O)O)cc2)C1` (single isomer, unassigned) [Compound 159A], the negative-log IC50 (pIC50) is 6.60 to 7.30. On to `CCCC1CCN(C(=O)c2c(OC)cc(C)c3[nH]ccc23)[C@H](c2ccc(C(=O)O)cc2)C1` (mixture of isomers) [Final product of Example 158, 4-((2S)-1-(5-Methoxy-7-methyl-1H-indole-4-carbonyl)-4-propylpiperidin-2-yl)benzoic acid], for which the negative-log IC50 (pIC50) is 6.60 to 7.30.
